Test results reported in ChEMBL document CHEMBL1201862, “PubChem BioAssay data set” (2004).
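Compound exposure: 48 hours, 5 concentrations, 96-well plates. GI50 marks 50% less growth.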 Calls of active or inactive are those of the source. Cut-off read from the data, not from the text of the source: active = GI50 up to about 1.1 µM and inactive = higher.

How the values were obtained:
Experiment in all cases: DTP human tumour cell line panel, 48 h
[1] = test system: 786-0
[2] = test system: HCC 2998
[3] = test system: COLO 205
[4] = test system: HOP-62
[5] = test system: U-251
[6] = test system: M19-MEL
[7] = test system: SNB-75
[8] = test system: UO-31
[9] = test system: IGROV-1
[10] = test system: SF-268
[11] = test system: SNB-78
[12] = test system: NCI-H226
[13] = test system: TK-10
[14] = test system: HT-29
[15] = test system: EKVX
[16] = test system: SN12C
[17] = test system: HL-60
[18] = test system: NCI-H460
[19] = test system: HOP-92
[20] = test system: SR
[21] = test system: NCI-H23
[22] = test system: SK-MEL-28
[23] = test system: KM12
[24] = test system: OVCAR-4
[25] = test system: UACC-257
[26] = test system: LXFL 529
[27] = test system: SF-295
[28] = test system: A498
[29] = test system: ACHN
[30] = test system: SK-MEL-2
[31] = test system: HCT-15
[32] = test system: RPMI-8226
[33] = test system: DMS-114
[34] = test system: UACC-62
[35] = test system: RXF 631
[36] = test system: CCRF-CEM
[37] = test system: DMS-273
[38] = test system: MOLT-4
[39] = test system: RXF 393
[40] = test system: OVCAR-3
[41] = test system: OVCAR-8
[42] = test system: OVCAR-5
[43] = test system: SK-OV-3
[44] = test system: SW-620
[45] = test system: DLD-1
[46] = test system: K562
[47] = test system: SF-539
[48] = test system: HCT-116
[49] = test system: CAKI-1
[50] = test system: SNB-19
[51] = test system: KM-20L2
[52] = test system: M14
[53] = test system: NCI-H522
[54] = test system: Malme-3M
[55] = test system: A549

## CCOc1ccc(NC(=O)/C(CC(=O)c2c[n+]([O-])c3ccccc3[n+]2[O-])=N\OCCCc2ccccc2)cc1
[1]
  GI50: > 100 µM (inactive)
[2]
  GI50: > 100 µM (inactive)
[3]
  GI50: > 100 µM (inactive)
[4]
  GI50: > 100 µM (inactive)
[5]
  GI50: > 100 µM (inactive)
[6]
  GI50: > 100 µM (inactive)
[7]
  GI50: > 100 µM (inactive)
[8]
  GI50: > 100 µM (inactive)
[9]
  GI50: > 100 µM (inactive)
[10]
  GI50: > 100 µM (inactive)
[11]
  GI50: > 100 µM (inactive)
[12]
  GI50: 44.9 µM (inactive)
[13]
  GI50: > 100 µM (inactive)
[14]
  GI50: > 100 µM (inactive)
[15]
  GI50: > 100 µM (inactive)
[16]
  GI50: > 100 µM (inactive)
[17]
  GI50: > 100 µM (inactive)
[18]
  GI50: > 100 µM (inactive)
[19]
  GI50: 16.9 µM (inactive)
[20]
  GI50: > 100 µM (inactive)
[21]
  GI50: > 100 µM (inactive)
[22]
  GI50: > 100 µM (inactive)
[23]
  GI50: > 100 µM (inactive)
[24]
  GI50: > 100 µM (inactive)
[25]
  GI50: > 100 µM (inactive)
[26]
  GI50: > 100 µM (inactive)
[27]
  GI50: > 100 µM (inactive)
[28]
  GI50: > 100 µM (inactive)
[29]
  GI50: > 100 µM (inactive)
[30]
  GI50: > 100 µM (inactive)
[31]
  GI50: > 100 µM
[32]
  GI50: > 100 µM (inactive)
[33]
  GI50: > 100 µM (inactive)
[34]
  GI50: > 100 µM (inactive)
[35]
  GI50: > 100 µM (inactive)
[36]
  GI50: 42.2 µM (inactive)
[37]
  GI50: > 100 µM (inactive)
[38]
  GI50: > 100 µM (inactive)
[39]
  GI50: > 100 µM (inactive)
[40]
  GI50: > 100 µM (inactive)
[41]
  GI50: > 100 µM (inactive)
[42]
  GI50: > 100 µM (inactive)
[43]
  GI50: > 100 µM (inactive)
[44]
  GI50: > 100 µM (inactive)
[45]
  GI50: > 100 µM (inactive)
[46]
  GI50: 62.5 µM (inactive)
[47]
  GI50: > 100 µM (inactive)
[48]
  GI50: > 100 µM (inactive)
[49]
  GI50: > 100 µM (inactive)
[50]
  GI50: > 100 µM (inactive)
[51]
  GI50: > 100 µM (inactive)
[52]
  GI50: > 100 µM (inactive)
[53]
  GI50: > 100 µM (inactive)
[54]
  GI50: > 100 µM (inactive)
[55]
  GI50: > 100 µM (inactive)
